Test results as given in PubChem BioAssay (NCI).
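GI50: concentration for 50% inhibition of growth. TGI: concentration producing complete growth inhibition.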 Residues, ends and D or L forms follow the SMILES beside them. *: point of attachment. Cbz = O=C(OCc1ccccc1)*

Tests used:
Assay in all cases: NCI anticancer screen, dose series, 384-well format
ACHN renal = test system: ACHN renal
MOLT-4 leukemia = test system: MOLT-4 leukemia
SK-MEL-5 melanoma = test system: SK-MEL-5 melanoma
SF-295 CNS = test system: SF-295 CNS
HCT-15 colon = test system: HCT-15 colon
HL-60(TB) leukemia = test system: HL-60(TB) leukemia
SK-MEL-28 melanoma = test system: SK-MEL-28 melanoma
786-0 renal = test system: 786-0 renal
HOP-92 NSCLC = test system: HOP-92 NSCLC
OVCAR-3 ovarian = test system: OVCAR-3 ovarian
RPMI-8226 leukemia = test system: RPMI-8226 leukemia
HS 578T breast = test system: HS 578T breast
OVCAR-8 ovarian = test system: OVCAR-8 ovarian

Structure (SMILES)	GI50 (ACHN renal) [nM]	TGI (ACHN renal) [nM]	GI50 (MOLT-4 leukemia) [nM]	TGI (MOLT-4 leukemia) [nM]	GI50 (SK-MEL-5 melanoma) [nM]	TGI (SK-MEL-5 melanoma) [nM]	GI50 (SF-295 CNS) [nM]	TGI (SF-295 CNS) [nM]	GI50 (HCT-15 colon) [nM]	TGI (HCT-15 colon) [nM]	GI50 (HL-60(TB) leukemia) [nM]	TGI (HL-60(TB) leukemia) [nM]	GI50 (SK-MEL-28 melanoma) [nM]	TGI (SK-MEL-28 melanoma) [nM]	GI50 (786-0 renal) [nM]	TGI (786-0 renal) [nM]	GI50 (HOP-92 NSCLC) [nM]	TGI (HOP-92 NSCLC) [nM]	GI50 (OVCAR-3 ovarian) [nM]	TGI (OVCAR-3 ovarian) [nM]	further results
CC(C)C[C@@H](C=O)NC(=O)[C@H](CC(C)C)NC(=O)[C@H](CC(C)C)NC(=O)OCc1ccccc1 (Cbz-Leu-Leu-Leu-aldehyde)	202	425	74.8	200	215	370	192	385	194	362	171	311	142	280	180	361	179	328	94	225	GI50 (RPMI-8226 leukemia): 30.1 nM; TGI (RPMI-8226 leukemia): 70.2 nM; GI50 (HS 578T breast): 121 nM; TGI (HS 578T breast): 246 nM; GI50 (OVCAR-8 ovarian): 164 nM; TGI (OVCAR-8 ovarian): 313 nM
Cc1[nH]nc2ncc(C(=O)N3CCC[C@H]3c3ccc(Cl)cc3)cc12	22100	62000	25500	> 72700	50800	> 100000	55200	> 100000	> 78600	> 100000	19700	34300	> 100000	> 100000	52800	> 100000	> 55600	> 89700	26100	99800	GI50 (RPMI-8226 leukemia): 54500 nM; TGI (RPMI-8226 leukemia): > 100000 nM; GI50 (HS 578T breast): 41400 nM; TGI (HS 578T breast): > 100000 nM; GI50 (OVCAR-8 ovarian): > 100000 nM; TGI (OVCAR-8 ovarian): > 100000 nM
